Reference: patent US9695155B2, “Herbicidal substituted pyrimidinyloxy benzene compounds” (E. I. DU PONT DE NEMOURS AND COMPANY, priority 2013, dated 2017)

Assays:
chickweed = test: Test D preemergence; type: in vivo, Stellaria media; conditions: Stellaria media, pre-emergence
Procedure, shortened: (§1)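 In a controlled growth environment, treated and control plants were held 7 to 21 days, then compared visually. Damage was scored 0–100, where 100 means complete control. Sprays contained surfactant in a non-phytotoxic solvent; post-applied plants were at the 1- to 4-leaf stage.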

field poppy = test: Test D preemergence; type: in vivo, Papaver rhoeas; conditions: Papaver rhoeas, pre-emergence
Procedure, shortened: as §1

Italian ryegrass [1] = test: Test D preemergence; type: in vivo, Lolium multiflorum; conditions: Lolium multiflorum, pre-emergence
Procedure, shortened: as §1

wild oat = test: Test D preemergence; type: in vivo, Avena fatua; conditions: Avena fatua, pre-emergence
Procedure, shortened: as §1

windgrass [2] = test: Test D preemergence; type: in vivo, Apera spica-venti; conditions: Apera spica-venti, pre-emergence
Procedure, shortened: as §1

bluegrass = test: Test D postemergence; type: in vivo, Poa annua; conditions: Poa annua, post-emergence, Postemergence, scale 0 to 100 (0 no effect, 100 complete control), read-out: Plant response rating, Bluegrass
Procedure, shortened: as §1

blackgrass = test: Test D postemergence; type: in vivo, Alopecurus myosuroides; conditions: Alopecurus myosuroides, post-emergence, Postemergence, scale 0 to 100 (0 no effect, 100 complete control), read-out: Plant response rating, Blackgrass
Procedure, shortened: as §1

Italian ryegrass [3] = test: Test D postemergence; type: in vivo, Lolium multiflorum; conditions: Lolium multiflorum, post-emergence
Procedure, shortened: as §1

spring wheat = test: Test D postemergence; type: in vivo, Triticum aestivum; conditions: Triticum aestivum, post-emergence
Procedure, shortened: as §1

winter wheat = test: Test D postemergence; type: in vivo, Triticum aestivum; conditions: Triticum aestivum, post-emergence
Procedure, shortened: as §1

wild buckwheat = test: Test D postemergence; type: in vivo, Polygonum convolvulus; conditions: Fallopia convolvulus, post-emergence, Postemergence, scale 0 to 100 (0 no effect, 100 complete control), read-out: Plant response rating, Buckwheat, Wild
Procedure, shortened: as §1

windgrass [4] = test: Test D postemergence; type: in vivo, Apera spica-venti; conditions: Apera spica-venti, post-emergence
Procedure, shortened: as §1

Q: `Fc1cccc(Oc2ncc(Cl)cn2)c1-n1cc(Br)cn1` [Compound 178, 2-[2-(4-bromo-1H-pyrazol-1-yl)-3-fluorophenoxy]-5-chloropyrimidine] was tested. Which pest or weed control at 16 g/ha (chickweed; 16 g ai/ha, scale 0 (no effect) to 100 (complete control), read-out: Plant response rating, Chickweed) did it give?
A: 0%

Q: What about the pest or weed control at 31 g/ha (chickweed; 31 g ai/ha, scale 0-100, read-out: Plant response rating, Chickweed) of the same compound?
A: 50%

Q: What about the pest or weed control at 62 g/ha (chickweed; 62 g ai/ha, scale 0-100, read-out: Plant response rating, Chickweed) of the same compound?
A: 85%

Q: And the pest or weed control at 125 g/ha (chickweed; 125 g ai/ha, scale 0-100, read-out: Plant response rating, Chickweed)?
A: 90%

Q: And the pest or weed control at 16 g/ha (field poppy; 16 g ai/ha, scale 0 (no effect) to 100 (complete control), read-out: Plant response rating, Field Poppy)?
A: 20%

Q: What about the pest or weed control at 31 g/ha (field poppy; 31 g ai/ha, scale 0-100, read-out: Plant response rating, Field Poppy) of the same compound?
A: 70%

Q: What about the pest or weed control at 62 g/ha (field poppy; 62 g ai/ha, scale 0-100, read-out: Plant response rating, Field Poppy) of the same compound?
A: 85%

Q: What about the pest or weed control at 125 g/ha (field poppy; 125 g ai/ha, scale 0-100, read-out: Plant response rating, Field Poppy) of the same compound?
A: 85%

Q: What about the pest or weed control at 16 g/ha (Italian ryegrass [1]; 16 g ai/ha, scale 0 (no effect) to 100 (complete control), read-out: Plant response rating, Ryegrass, Italian) of the same compound?
A: 0%

Q: And the pest or weed control at 31 g/ha (Italian ryegrass [1]; 31 g ai/ha, scale 0 (no effect) to 100 (complete control), read-out: Plant response rating, Ryegrass, Italian)?
A: 0%

Q: And the pest or weed control at 62 g/ha (Italian ryegrass [1]; 62 g ai/ha, scale 0-100, read-out: Plant response rating, Ryegrass, Italian)?
A: 15%

Q: What about the pest or weed control at 125 g/ha (Italian ryegrass [1]; 125 g ai/ha, scale 0-100, read-out: Plant response rating, Ryegrass, Italian) of the same compound?
A: 20%

Q: What about the pest or weed control at 16 g/ha (wild oat; 16 g ai/ha, scale 0 (no effect) to 100 (complete control), read-out: Plant response rating, Oat, Wild) of the same compound?
A: 0%

Q: And the pest or weed control at 31 g/ha (wild oat; 31 g ai/ha, scale 0-100, read-out: Plant response rating, Oat, Wild)?
A: 0%

Q: And the pest or weed control at 62 g/ha (wild oat; 62 g ai/ha, scale 0-100, read-out: Plant response rating, Oat, Wild)?
A: 10%

Q: What about the pest or weed control at 125 g/ha (wild oat; 125 g ai/ha, scale 0-100, read-out: Plant response rating, Oat, Wild) of the same compound?
A: 25%

Q: And the pest or weed control at 16 g/ha (windgrass [2]; 16 g ai/ha, scale 0 (no effect) to 100 (complete control), read-out: Plant response rating, Windgrass)?
A: 75%

Q: And the pest or weed control at 31 g/ha (windgrass [2]; 31 g ai/ha, scale 0 (no effect) to 100 (complete control), read-out: Plant response rating, Windgrass)?
A: 75%

Q: What about the pest or weed control at 62 g/ha (windgrass [2]; 62 g ai/ha, scale 0-100, read-out: Plant response rating, Windgrass) of the same compound?
A: 70%

Q: What about the pest or weed control at 125 g/ha (windgrass [2]; 125 g ai/ha, scale 0-100, read-out: Plant response rating, Windgrass) of the same compound?
A: 95%

Q: And the pest or weed control at 16 g/ha (bluegrass; 16 g ai/ha)?
A: 20%

Q: What about the pest or weed control at 31 g/ha (bluegrass; 31 g ai/ha) of the same compound?
A: 30%

Q: And the pest or weed control at 62 g/ha (bluegrass; 62 g ai/ha)?
A: 35%

Q: And the pest or weed control at 125 g/ha (bluegrass; 125 g ai/ha)?
A: 55%

Q: And the pest or weed control at 62 g/ha (blackgrass; 62 g ai/ha)?
A: 25%

Q: What about the pest or weed control at 16 g/ha (blackgrass; 16 g ai/ha) of the same compound?
A: 5%

Q: What about the pest or weed control at 31 g/ha (blackgrass; 31 g ai/ha) of the same compound?
A: 10%

Q: And the pest or weed control at 16 g/ha (Italian ryegrass [3]; 16 g ai/ha, scale 0-100, read-out: Plant response rating, Ryegrass, Italian)?
A: 0%

Q: What about the pest or weed control at 31 g/ha (Italian ryegrass [3]; 31 g ai/ha, scale 0 to 100 (0 no effect, 100 complete control), read-out: Plant response rating, Ryegrass, Italian) of the same compound?
A: 0%

Q: What about the pest or weed control at 62 g/ha (Italian ryegrass [3]; 62 g ai/ha, scale 0 to 100 (0 no effect, 100 complete control), read-out: Plant response rating, Ryegrass, Italian) of the same compound?
A: 5%

Q: And the pest or weed control at 125 g/ha (Italian ryegrass [3]; 125 g ai/ha, scale 0 to 100 (0 no effect, 100 complete control), read-out: Plant response rating, Ryegrass, Italian)?
A: 15%

Q: What about the plant injury at 16 g/ha (spring wheat; 16 g ai/ha, scale 0-100, read-out: Plant response rating, Wheat, Spring) of the same compound?
A: 0%

Q: And the plant injury at 31 g/ha (spring wheat; 31 g ai/ha, scale 0 to 100 (0 no effect, 100 complete control), read-out: Plant response rating, Wheat, Spring)?
A: 0%

Q: What about the plant injury at 62 g/ha (spring wheat; 62 g ai/ha, scale 0 to 100 (0 no effect, 100 complete control), read-out: Plant response rating, Wheat, Spring) of the same compound?
A: 0%

Q: What about the plant injury at 125 g/ha (spring wheat; 125 g ai/ha, scale 0 to 100 (0 no effect, 100 complete control), read-out: Plant response rating, Wheat, Spring) of the same compound?
A: 5%

Q: What about the plant injury at 16 g/ha (winter wheat; 16 g ai/ha, scale 0-100, read-out: Plant response rating, Wheat, Winter) of the same compound?
A: 0%

Q: And the plant injury at 31 g/ha (winter wheat; 31 g ai/ha, scale 0 to 100 (0 no effect, 100 complete control), read-out: Plant response rating, Wheat, Winter)?
A: 0%

Q: What about the plant injury at 62 g/ha (winter wheat; 62 g ai/ha, scale 0 to 100 (0 no effect, 100 complete control), read-out: Plant response rating, Wheat, Winter) of the same compound?
A: 0%

Q: What about the plant injury at 125 g/ha (winter wheat; 125 g ai/ha, scale 0 to 100 (0 no effect, 100 complete control), read-out: Plant response rating, Wheat, Winter) of the same compound?
A: 10%

Q: And the pest or weed control at 16 g/ha (wild buckwheat; 16 g ai/ha)?
A: 65%

Q: What about the pest or weed control at 31 g/ha (wild buckwheat; 31 g ai/ha) of the same compound?
A: 75%

Q: What about the pest or weed control at 62 g/ha (wild buckwheat; 62 g ai/ha) of the same compound?
A: 75%

Q: What about the pest or weed control at 125 g/ha (wild buckwheat; 125 g ai/ha) of the same compound?
A: 85%

Q: And the pest or weed control at 16 g/ha (windgrass [4]; 16 g ai/ha, scale 0-100, read-out: Plant response rating, Windgrass)?
A: 5%

Q: What about the pest or weed control at 31 g/ha (windgrass [4]; 31 g ai/ha, scale 0 to 100 (0 no effect, 100 complete control), read-out: Plant response rating, Windgrass) of the same compound?
A: 10%

Q: And the pest or weed control at 62 g/ha (windgrass [4]; 62 g ai/ha, scale 0 to 100 (0 no effect, 100 complete control), read-out: Plant response rating, Windgrass)?
A: 15%

Q: What about the pest or weed control at 125 g/ha (windgrass [4]; 125 g ai/ha, scale 0 to 100 (0 no effect, 100 complete control), read-out: Plant response rating, Windgrass) of the same compound?
A: 20%
